The subject of series [1] is Plasmodium falciparum. Description: Antimalarial activity against chloroquine-sensitive Plasmodium falciparum D6 infected human erythrocytes after 24 hrs by [3H]hypoxanthine uptake. The class given is functional. The note with it: read-out: ED50 (the source's name).
The subject of series [2] is Plasmodium falciparum. Description: Antimalarial activity against chloroquine-resistant Plasmodium falciparum W2 infected human erythrocytes after 24 hrs by [3H]hypoxanthine uptake. Format: functional. The settings on record: read-out: ED50 (the source's name).
Series [3] in a line: Selectivity index, ratio of ED50 for human KB cells to ED50 for chloroquine-sensitive Plasmodium falciparum D6. The class given is toxicity, cell-based. The settings on record: read-out: Selectivity Index.
Series [4] is described as follows: Selectivity index, ratio of ED50 for human KB cells to ED50 for chloroquine-resistant Plasmodium falciparum W2. The class given is toxicity, cell-based. The settings on record: read-out: Selectivity Index.
Series [5] is described as follows: Cytotoxicity against human BCA1 cells after 3 days by SRB assay. Format: functional. The note with it: BCA1, 72 h, read-out: ED50 (the source's name). Background: The SRB assay estimates cell density from bound dye.
In series [6] the test system is HT-1080. Description: Cytotoxicity against human HT1080 cells after 3 days by SRB assay. The class given is functional. The settings on record: HT-1080, 72 h, read-out: ED50 (the source's name).
Series [7] deals with Lu1. Description: Cytotoxicity against human Lu1 cells after 3 days by SRB assay. Format: functional. The settings on record: Lu1, 72 h, read-out: ED50 (the source's name).
Series [8] deals with Col2. As to the kind of experiment: Cytotoxicity against human Col2 cells after 3 days by SRB assay. The class given is functional. The settings on record: Col2, 72 h, read-out: ED50 (the source's name).
For series [9], the system named is KB. As to the kind of experiment: Cytotoxicity against human KB cells after 3 days by SRB assay. Format: functional. The settings on record: 72 h, read-out: ED50 (the source's name).
A short description of series [10]: Cytotoxicity against human KBVIN cells in presence of 1 ug/ml vinblastine after 3 days by SRB assay. The class given is functional. The note with it: 72 h, read-out: ED50 (the source's name).
The nature of series [11]: Cytotoxicity against human KBVIN cells after 3 days by SRB assay. Format: functional. The settings on record: 72 h, read-out: ED50 (the source's name).
In series [12] the test system is P388. As to the kind of experiment: Cytotoxicity against mouse P388 cells after 3 days by SRB assay. The class given is functional. The settings on record: P388, 72 h, read-out: ED50 (the source's name).
Series [13] has as its system A-431. As to the kind of experiment: Cytotoxicity against human A431 cells after 3 days by SRB assay. The note with it: A-431, 72 h, read-out: ED50 (the source's name). The class given is functional.
Series [14] relates to LNCaP. Description: Cytotoxicity against human LNCAP cells after 3 days by SRB assay. Format: functional. The settings on record: 72 h, read-out: ED50 (the source's name).
The subject of series [15] is ZR-75-1. Description: Cytotoxicity against human ZR-75-1 cells after 3 days by SRB assay. The class given is functional. The settings on record: ZR-75-1, 72 h, read-out: ED50 (the source's name).
Series [16] in a line: Cytotoxicity against human U373 cells after 3 days by SRB assay. The class given is functional, U-373MG ATCC. The settings on record: U373 MG, 72 h, read-out: ED50 (the source's name).
For series [17], the target named is Human immunodeficiency virus type 1 reverse transcriptase (Human immunodeficiency virus 1) (UniProt Q72547). Description: Inhibition of HIV1 reverse transcriptase.

Consider seven compounds from ChEMBL document CHEMBL1148074, “Thalifaberidine, a cytotoxic aporphine-benzylisoquinoline alkaloid from Thalictrum faberi” (J Nat Prod, 1994).

Converted amounts (≈) assume the structure as drawn. The source made the active and inactive calls. The rule behind the calls is not given here.

In the case of `OC(c1cc(C(F)(F)F)nc2c(C(F)(F)F)cccc12)C1CCCCN1` (centres undefined) [MEFLOQUINE], the EC50 stood at 0.0089 mg/L (≈ 0.0235 µM) in series [1] and 0.0019 mg/L (≈ 0.00502 µM) in series [2]. The selectivity ratio in series [3] was determined as 393; in series [4] it was 1840.
For `COc1cc2c(c(O)c1OC)CCN(C)[C@H]2Cc1ccc(Oc2c3c(cc(OC)c2OC)-c2c(OC)c(OC)c(O)c4c2[C@H](C3)N(C)CC4)cc1` [THALIFASINE], the EC50 in series [5] stood at 2.4 mg/L (≈ 3.43 µM); in series [6] it was 1.3 mg/L (≈ 1.86 µM); in [7], 2 mg/L (≈ 2.86 µM); in series [8], 2.1 mg/L (≈ 3.01 µM); in [9] it was 4.6 mg/L (≈ 6.58 µM); in series [10], 5.7 mg/L. The EC50 came out at 1.6 mg/L (≈ 2.29 µM) in [11]; 1.2 mg/L (≈ 1.72 µM) in [12]; 8.2 mg/L (≈ 11.7 µM) in series [13]; 3.3 mg/L (≈ 4.72 µM) in series [14]; 1.2 mg/L (≈ 1.72 µM) in series [15]; 2.2 mg/L (≈ 3.15 µM) in series [16]. The EC50 in series [1] is 0.238 mg/L (≈ 0.341 µM); in series [2], 0.0493 mg/L (≈ 0.0705 µM). Moreover, the selectivity ratio was found to be 19 in series [3] and 93 in [4]. In addition, the result in series [17] was inactive.
In the case of `COc1cc2c(cc1OC)[C@H](Cc1ccc(Oc3c4c(cc(OC)c3OC)-c3c(OC)c(OC)c(OC)c5c3[C@H](C4)N(C)CC5)cc1)N(C)CC2` [THALIFABERINE], the EC50 turned out to be 5.4 mg/L (≈ 7.75 µM) in series [5]; 2.6 mg/L (≈ 3.73 µM) in series [6]; 16.3 mg/L (≈ 23.4 µM) in series [7]; 1.6 mg/L (≈ 2.3 µM) in series [8]; 15.5 mg/L (≈ 22.2 µM) in series [9]; 4.6 mg/L in series [10]. Further, the EC50 in [11] turned out to be 1.2 mg/L (≈ 1.72 µM); in series [12] it was 1.3 mg/L (≈ 1.87 µM); in series [13], 4.9 mg/L (≈ 7.03 µM); in series [14] it was 5.7 mg/L (≈ 8.18 µM); in series [15], 3.7 mg/L (≈ 5.31 µM); in [16], 4.1 mg/L (≈ 5.88 µM). For the same compound, the EC50 in series [1] was 5.09 mg/L (≈ 7.3 µM); in [2] it was 0.441 mg/L (≈ 0.633 µM). The values for the selectivity ratio in [3] and in series [4] were 3 and 35, respectively. Moreover, the outcome in [17] was inactive.
In the case of `C=C[C@H]1CN2CC[C@H]1C[C@H]2[C@H](O)c1ccnc2ccc(OC)cc12` [QUININE], the EC50 in series [1] was 0.0208 mg/L (≈ 0.0641 µM); in series [2], 0.0592 mg/L (≈ 0.182 µM). For the same compound, the selectivity ratio in series [3] was over 960; in series [4] it was over 340.
For the compound `COc1cc2c(cc1O)CCN(C)[C@H]2Cc1ccc(Oc2c(O)c(OC)cc3c2C[C@H]2c4c(c(OC)c(OC)c(OC)c4-3)CCN2C)cc1` [THALIFABERIDINE], the EC50 is 3.9 mg/L (≈ 5.83 µM) in [5]; 3.1 mg/L (≈ 4.64 µM) in [6]; 5.4 mg/L (≈ 8.07 µM) in [7]; 3.2 mg/L (≈ 4.78 µM) in [8]; 5.7 mg/L (≈ 8.52 µM) in series [9]; 17.7 mg/L in series [10]. Besides, the EC50 in [11] worked out at 7.8 mg/L (≈ 11.7 µM); in [12], 0.6 mg/L (≈ 0.897 µM); in series [13], 6.7 mg/L (≈ 10 µM); in series [14], 3.7 mg/L (≈ 5.53 µM); in series [15], 1.5 mg/L (≈ 2.24 µM); in [16] it was 1.5 mg/L (≈ 2.24 µM). In addition, the EC50 in series [1] is 0.88 mg/L (≈ 1.32 µM); in series [2] it was 0.122 mg/L (≈ 0.182 µM). For the same compound, the selectivity ratio in series [3] is 6.5; in series [4], 47. Besides, the outcome in [17] was inactive.
As to `C[C@@H]1CC[C@H]2[C@@H](C)C(=O)O[C@@H]3O[C@@]4(C)CC[C@@H]1[C@]32OO4` [ARTEMISININ], the EC50 stood at 0.0011 mg/L (≈ 0.0039 µM) in series [1] and 0.0004 mg/L (≈ 0.00142 µM) in series [2]. In addition, the selectivity ratio is over 1820 in series [3] and over 50000 in [4].
Take `CCN(CC)CCCC(C)Nc1ccnc2cc(Cl)ccc12` (centres undefined) [CHLOROQUINE]: the EC50 in series [1] came to 0.0035 mg/L (≈ 0.0109 µM).
